Results on 15 compounds are retold here after patent US20210179578A1, “OX1 ANTAGONISTS” (Heptares Therapeutics Limited, priority 2017, published 2021).

SMILES strings stand for the structures.

The target in the assay is T1, human OX2 receptor (Homo sapiens, UniProt O43614).
T1 sequence (O43614 1-444): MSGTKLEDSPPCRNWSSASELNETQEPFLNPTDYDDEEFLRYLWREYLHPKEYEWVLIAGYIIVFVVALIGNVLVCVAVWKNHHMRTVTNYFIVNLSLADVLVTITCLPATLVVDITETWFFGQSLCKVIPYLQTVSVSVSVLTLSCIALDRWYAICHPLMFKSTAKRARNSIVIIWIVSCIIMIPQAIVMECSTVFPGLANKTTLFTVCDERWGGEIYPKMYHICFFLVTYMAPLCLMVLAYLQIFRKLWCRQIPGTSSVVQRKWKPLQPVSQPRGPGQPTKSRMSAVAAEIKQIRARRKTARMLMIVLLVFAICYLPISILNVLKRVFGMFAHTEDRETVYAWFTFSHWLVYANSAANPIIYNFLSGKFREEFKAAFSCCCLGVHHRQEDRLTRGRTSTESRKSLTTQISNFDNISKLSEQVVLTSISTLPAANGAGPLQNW
Kind of assay: IPone accumulation assay, CHO cells expressing OX2 (antagonism of orexin A). As to conditions: CHO human OX2, orexin A EC80 challenge (40 nM), read-out: fpKb average OX2 (converted). The class given is cell-based. The protocol: Generation of CHO stable cell lines expressing the human OX1R and OX2R. Stable cell lines for the human OX1R and OX2R receptors were generated through the transfection of CHO cells using the transfection reagent Genejuice (Novagen number 70967) and cDNA coding for either the human OX1R or OX2R. Cells were cultured in Sigma Nutrient Mixture F-12 Ham media (catalog number N6658) supplemented with 10% heat-inactivated FBS. Forty-eight hours after transfection, cells were harvested and placed under geneticin selection by culturing in Sigma Nutrient Mixture F-12 Ham media supplemented with 10% heat-inactivated FBS and geneticin (ThermoFisher Catalog number: 10131035). Selection of the final stable clone for each receptor was made on the basis of receptor expression, assay signal to noise and robustness though increasing passage. Selected clones for the human OX1R and OX2R were then frozen down into liquid nitrogen using Cell Freezing Medium-DMSO (Sigma-Aldrich catalog number: C6164).
IPone accumulation assay. A CHO cell line stably expressing either human OX1 or OX2 receptor was used with the IPone HTRF assay kit (CisBio: Part #62IPAPEJ) to measure receptor activation. The assay was optimised to measure the ability (potency; fpKb) of antagonists to reduce agonist (orexin A)-induced inositol phosphate turnover. Briefly, cells were plated onto half area 96-well white walled plates at a density of 12,500 cells/well. Sixteen hours post-plating cell growth media was replaced with antagonist concentration-response curve diluted in stimulation buffer (supplied with the kit). Cells were incubated in a humidified incubator (37° C.) for 30 min before an EC80 challenge concentration (˜20 nM (OX1) and 40 nM (OX2)) of orexin A (Tocris catalogue number 1455). After 30 min stimulation in a humidified incubator (37° C.) the assay was terminated by the addition of detection mixture as per manufacturer's instructions. The concentration of compound which reduced orexin-A stimulated turnover of inositol phosphates by 50% (IC50) was calculated by fitting to a four parameter sigmoidal dose response curve. The IC50 values were converted to fpKB values using the orexin A pEC50 value estimated on each plate as well as the challenge concentration interpolated from the orexin A control curve.
On to `COc1nc(OC)c(C(C)(F)F)cc1N1CCc2c(F)cccc2N(Cc2c(F)cc(Br)cc2F)C1=O` [Example 23, 1-(4-bromo-2,6-difluorobenzyl)-3-[5-(1,1-difluoroethyl)-2,6-dimethoxypyridin-3-yl]-6-fluoro-1,3,4,5-tetrahydro-2H-1,3-benzodiazepin-2-one], for which the Kb is > 1.58 µM. Next, `COc1ncc(C2CCc3c(F)cccc3N(Cc3c(F)cc(Br)cc3F)C2=O)cc1S(C)(=O)=O` (racemic) [Example 19, 1-(4-bromo-2,6-difluorobenzyl)-6-fluoro-3-[6-methoxy-5-(methylsulfonyl)pyridin-3-yl]-1,3,4,5-tetrahydro-2H-1-benzazepin-2-one]: > 3.16 µM; `Cc1ncc(C2CCc3c(F)cccc3N(Cc3c(F)cc(Br)cc3F)C2=O)cc1S(C)(=O)=O` (single isomer, unassigned) [Example 38, 1-(4-bromo-2,6-difluorobenzyl)-6-fluoro-3-[6-methyl-5-(methylsulfonyl)pyridin-3-yl]-1,3,4,5-tetrahydro-2H-1-benzazepin-2-one]: > 0.398 µM. The result for `COc1ncc(C2CCc3c(F)cccc3N(Cc3cc(C#N)ccc3F)C2=O)cc1C(C)(F)F` (single isomer, unassigned) [Example 13, 3-({3-[5-(1,1-difluoroethyl)-6-methoxypyridin-3-yl]-6-fluoro-2-oxo-2,3,4,5-tetrahydro-1H-1-benzazepin-1-yl}methyl)-4-fluorobenzonitrile] reads > 0.794 µM; that for `COc1cc(F)c(CN2C(=O)N(c3cnc(OC)c(S(C)(=O)=O)c3)CCc3c(F)cccc32)c(F)c1F` [Example 15, 6-fluoro-3-[6-methoxy-5-(methylsulfonyl)pyridin-3-yl]-1-(2,3,6-trifluoro-4-methoxybenzyl)-1,3,4,5-tetrahydro-2H-1,3-benzodiazepin-2-one], > 3.16 µM.

On to `Cc1cc(C)c(S(C)(=O)=O)cc1N1CCc2ccccc2N(Cc2c(F)cc(Br)cc2F)C1=O` [Example 29, 1-(4-bromo-2,6-difluorobenzyl)-3-[2,4-dimethyl-5-(methylsulfonyl)phenyl]-1,3,4,5-tetrahydro-2H-1,3-benzodiazepin-2-one], for which the Kb is 0.398 µM. Next, `Cc1ncc(C2CCc3c(F)cccc3N(Cc3c(F)cc(Br)cc3F)C2=O)cc1C(C)(F)F` (single isomer, unassigned) [Example 35, 1-(4-bromo-2,6-difluorobenzyl)-3-[5-(1,1-difluoroethyl)-6-methylpyridin-3-yl]-6-fluoro-1,3,4,5-tetrahydro-2H-1-benzazepin-2-one]: > 2.51 µM. With `CCCc1cc(F)c(CN2C(=O)N(c3cnc(C)c(C(C)(F)F)c3)CCc3c(F)cccc32)c(F)c1` [Example 34, 3-[5-(1,1-difluoroethyl)-6-methylpyridin-3-yl]-1-(2,6-difluoro-4-propylbenzyl)-6-fluoro-1,3,4,5-tetrahydro-2H-1,3-benzodiazepin-2-one], the Kb is > 2.51 µM. Next, `Cc1ncc(C2CCc3c(F)cccc3N(Cc3c(F)cc(Br)cc3F)C2=O)cc1C(C)(F)F` (single isomer, unassigned) [Example 36, 1-(4-bromo-2,6-difluorobenzyl)-3-[5-(1,1-difluoroethyl)-6-methylpyridin-3-yl]-6-fluoro-1,3,4,5-tetrahydro-2H-1-benzazepin-2-one]: > 2 µM; `COc1ccc(CN2C(=O)N(c3cnc(OC)c(C(C)(F)F)c3)CCc3c(F)cccc32)c(F)c1` [Example 4, 3-[5-(1,1-difluoroethyl)-6-methoxypyridin-3-yl]-6-fluoro-1-(2-fluoro-4-methoxybenzyl)-1,3,4,5-tetrahydro-2H-1,3-benzodiazepin-2-one]: > 3.98 µM.

For the compound `COc1cc(F)c(CN2C(=O)N(c3cnc(OC)c(S(C)(=O)=O)c3)CCc3c(F)cccc32)c(F)c1` [Example 16, 1-(2,6-difluoro-4-methoxybenzyl)-6-fluoro-3-[6-methoxy-5-(methylsulfonyl)pyridin-3-yl]-1,3,4,5-tetrahydro-2H-1,3-benzodiazepin-2-one], the Kb was > 3.98 µM. The result for `Cc1ncc(C2CCc3c(F)cccc3N(Cc3c(F)cc(Br)cc3F)C2=O)cc1S(C)(=O)=O` (single isomer, unassigned) [Example 39, 1-(4-bromo-2,6-difluorobenzyl)-6-fluoro-3-[6-methyl-5-(methylsulfonyl)pyridin-3-yl]-1,3,4,5-tetrahydro-2H-1-benzazepin-2-one] reads > 2.51 µM; that for `Cc1ccc(N2CCc3c(F)cccc3N(Cc3c(F)cc(Br)cc3F)C2=O)cc1S(C)(=O)=O` [Example 27, 1-(4-bromo-2,6-difluorobenzyl)-6-fluoro-3-[4-methyl-3-(methylsulfonyl)phenyl]-1,3,4,5-tetrahydro-2H-1,3-benzodiazepin-2-one], > 3.16 µM; that for `Cc1cc(C)c(S(C)(=O)=O)cc1N1CCc2c(F)cccc2N(Cc2c(F)cc(Br)cc2F)C1=O` [Example 31, 1-(4-bromo-2,6-difluorobenzyl)-3-[2,4-dimethyl-5-(methylsulfonyl)phenyl]-6-fluoro-1,3,4,5-tetrahydro-2H-1,3-benzodiazepin-2-one], > 0.316 µM. For the compound `COc1ncc(C2CCc3c(F)cccc3N(Cc3c(F)cc(Br)cc3F)C2=O)cc1S(C)(=O)=O` (single isomer, unassigned) [Example 21, 1-(4-bromo-2,6-difluorobenzyl)-6-fluoro-3-[6-methoxy-5-(methylsulfonyl)pyridin-3-yl]-1,3,4,5-tetrahydro-2H-1-benzazepin-2-one], the Kb is > 1.58 µM.
